Data from US11407767B2, “Heterocyclyl substituted pyrrolopyridines that are inhibitors of the CDK12 kinase” (The University of Nottingham, priority 2017, dated 2022).
Where a name gives a salt, the structure may show the parent alone.

Each compound was assayed against CDK12/CycK (Homo sapiens, UniProt Q9NYV4) (assay: Inhibition of CDK12 (ADP-Glo kinase assay)). Conditions: 60 nM CDK12/CycK, 30 minutes pre-incubation, 1 μM ATP, 0.5 μM RBER-IRStide substrate, 1 h at 25° C., read-out: CDK12/cyclin K IC50.
Chain of CDK12/CycK (Q9NYV4 whole entry): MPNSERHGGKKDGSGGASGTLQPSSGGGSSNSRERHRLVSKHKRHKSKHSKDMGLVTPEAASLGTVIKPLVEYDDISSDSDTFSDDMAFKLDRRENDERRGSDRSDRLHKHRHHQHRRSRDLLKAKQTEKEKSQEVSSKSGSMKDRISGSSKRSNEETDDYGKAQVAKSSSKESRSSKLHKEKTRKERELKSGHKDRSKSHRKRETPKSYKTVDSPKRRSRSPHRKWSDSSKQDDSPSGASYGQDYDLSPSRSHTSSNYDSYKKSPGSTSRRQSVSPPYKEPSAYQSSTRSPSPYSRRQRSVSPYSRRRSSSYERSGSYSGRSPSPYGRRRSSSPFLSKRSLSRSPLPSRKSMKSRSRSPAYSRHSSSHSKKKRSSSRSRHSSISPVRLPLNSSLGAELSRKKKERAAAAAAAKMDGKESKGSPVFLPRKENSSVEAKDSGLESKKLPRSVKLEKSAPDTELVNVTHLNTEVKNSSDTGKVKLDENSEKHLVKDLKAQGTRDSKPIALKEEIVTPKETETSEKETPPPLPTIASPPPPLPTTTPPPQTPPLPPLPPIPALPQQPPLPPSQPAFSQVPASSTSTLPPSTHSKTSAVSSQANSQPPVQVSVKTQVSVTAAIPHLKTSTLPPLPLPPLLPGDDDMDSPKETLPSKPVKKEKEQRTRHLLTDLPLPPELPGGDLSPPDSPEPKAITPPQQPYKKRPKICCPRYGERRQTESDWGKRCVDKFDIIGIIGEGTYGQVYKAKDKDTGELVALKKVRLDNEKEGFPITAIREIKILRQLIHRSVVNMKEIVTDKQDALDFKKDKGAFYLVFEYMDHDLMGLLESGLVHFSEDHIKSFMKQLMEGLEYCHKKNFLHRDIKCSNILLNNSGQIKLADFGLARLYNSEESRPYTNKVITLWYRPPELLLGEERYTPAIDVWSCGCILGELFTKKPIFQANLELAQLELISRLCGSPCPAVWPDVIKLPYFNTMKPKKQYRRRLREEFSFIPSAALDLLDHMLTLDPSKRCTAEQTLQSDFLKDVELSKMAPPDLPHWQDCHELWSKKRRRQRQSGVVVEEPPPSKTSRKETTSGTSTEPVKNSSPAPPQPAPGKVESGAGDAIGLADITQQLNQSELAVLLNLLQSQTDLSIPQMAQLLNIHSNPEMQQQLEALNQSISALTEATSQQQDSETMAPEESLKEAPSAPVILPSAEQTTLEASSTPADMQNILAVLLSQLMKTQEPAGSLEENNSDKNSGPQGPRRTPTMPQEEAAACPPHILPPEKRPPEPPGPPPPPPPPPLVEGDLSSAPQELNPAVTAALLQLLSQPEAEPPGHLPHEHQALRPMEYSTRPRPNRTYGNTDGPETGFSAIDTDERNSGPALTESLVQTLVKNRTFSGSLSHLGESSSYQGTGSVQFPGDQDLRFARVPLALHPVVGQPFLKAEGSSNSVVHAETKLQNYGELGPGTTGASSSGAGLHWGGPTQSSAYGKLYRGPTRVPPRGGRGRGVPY
Chain of CDK12/CycK (O75909 whole entry partner): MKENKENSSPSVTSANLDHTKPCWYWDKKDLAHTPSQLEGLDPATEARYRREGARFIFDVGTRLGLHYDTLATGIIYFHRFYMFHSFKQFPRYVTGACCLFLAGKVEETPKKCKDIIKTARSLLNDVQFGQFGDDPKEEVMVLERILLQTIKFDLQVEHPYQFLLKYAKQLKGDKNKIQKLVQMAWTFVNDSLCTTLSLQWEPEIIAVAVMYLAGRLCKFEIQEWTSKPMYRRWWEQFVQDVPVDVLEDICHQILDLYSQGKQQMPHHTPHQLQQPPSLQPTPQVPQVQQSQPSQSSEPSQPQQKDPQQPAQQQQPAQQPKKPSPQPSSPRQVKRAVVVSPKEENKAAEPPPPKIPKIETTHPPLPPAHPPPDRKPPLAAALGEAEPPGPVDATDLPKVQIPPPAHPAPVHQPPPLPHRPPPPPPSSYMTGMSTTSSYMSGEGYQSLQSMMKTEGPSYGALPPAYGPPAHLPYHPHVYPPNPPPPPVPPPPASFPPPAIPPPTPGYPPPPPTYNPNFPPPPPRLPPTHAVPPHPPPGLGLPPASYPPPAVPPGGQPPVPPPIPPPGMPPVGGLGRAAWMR
Format: biochemical
Procedure: Assay buffer comprised 50 mM HEPES pH 7.5, 1 mM DTT, 20 mM MgCl2, 3 mM MnCl2, 3 μM Na3VO4 and 50 μg/ml PEG8000. Kinase reactions were carried out in 384-well Optiplates™ (PerkinElmer 6007299). Test compounds were dissolved & diluted in dimethyl sulfoxide (DMSO) and cross diluted into assay buffer with a final DMSO concentration of 1% (v/v) in the assay. Test compounds (or 1% DMSO in control and blank wells) were pre-incubated with 60 nM CDK12/CycK for 30 minutes. After this time 1 μM Adenosine-5′-triphosphate (ATP) and 0.5 μM RBER-IRStide substrate (ProQinase 0863-0000-1) were added to commence the kinase reaction. Incubations were carried out for 1 h at 25° C. with kinase activity determined using the ADP-Glo™ reagent from Promega according to the manufacturer's instructions. Light generated is proportional to kinase activity and measured using a luminometer (EnVision, PerkinElmer). The signal obtained in the blank wells (containing no kinase) was subtracted from all other wells and IC50 values were determined by fitting a sigmoidal curve to % inhibition of control versus Log10 compound concentration.

| IC50 [nM] | Structure (SMILES) |
| --- | --- |
| 100 to 1000 | Clc1cnc2[nH]ccc2c1-c1cnn2ncccc12 [Example 132, 3-(5-Chloro-1H-pyrrolo[2,3-b]pyridin-4-yl)pyrazolo[1,5-b]pyridazine] |
| 100 to 1000 | CC(C)(C)OC(=O)N1CCC(c2cc3c(-c4cnn5ncccc45)ccnc3[nH]2)C1 (stereo not drawn) [Example 119, tert-Butyl 3-(4-(pyrazolo[1,5-b]pyridazin-3-yl)-1H-pyrrolo[2,3-b]pyridin-2-yl)pyrrolidine-1-carboxylate] |
| 1000 to 30000 | CCn1nccc1-c1ccnc2[nH]ccc12 [Example 19, 4-(1-Ethyl-1H-pyrazol-5-yl)-1H-pyrrolo[2,3-b]pyridine] |
| 1000 to 30000 | O=C(NCCc1cc2c(-c3ccncc3)ccnc2[nH]1)[C@@H]1CCCN1 [Example 107, (S)—N-(2-(4-(Pyridin-4-yl)-1H-pyrrolo[2,3-b]pyridin-2-yl)ethyl)pyrrolidine-2-carboxamide] |
| 1000 to 30000 | C=CC(=O)N1CCC[C@H]1C(=O)NCc1cc2c(-c3cnn4ncccc34)ccnc2[nH]1 [Example 183, (S)-1-Acryloyl-N-((4-(pyrazolo[1,5-b]pyridazin-3-yl)-1H-pyrrolo[2,3-b]pyridin-2-yl)methyl)pyrrolidine-2-carboxamide] |
| 1000 to 30000 | OCC(O)COc1cnn2ncc(-c3ccnc4[nH]ccc34)c2c1 (stereo not drawn) [Example 131, 3-((3-(1H-Pyrrolo[2,3-b]pyridin-4-yl)pyrazolo[1,5-b]pyridazin-5-yl)oxy)propane-1,2-diol] |
| < 100 | c1cnn2ncc(-c3ccnc4[nH]c(C5CCNC5)cc34)c2c1 (stereo not drawn) [Example 122, 3-[2-(pyrrolidin-3-yl)-1H-pyrrolo[2,3-b]pyridine-4-yl)pyrazolo[1,5-b]pyridazine] |
| < 100 | C=CC(=O)Nc1cccc(C(=O)NCCc2cc3c(-c4cnn5ncccc45)c(Cl)cnc3[nH]2)c1 [Example 56, 3-Acrylamido-N-(2-(5-chloro-4-(pyrazolo[1,5-b]pyridazin-3-yl)-1H-pyrrolo[2,3-b]pyridin-2-yl)ethyl)benzamide] |
| 1000 to 30000 | C=CC(=O)N[C@@H]1CC[C@@H](C(=O)NCc2cc3c(-c4cnn5ncccc45)ccnc3[nH]2)C1 [Example 59, (1R,3R)-3-Acrylamido-N-((4-(pyrazolo[1,5-b]pyridazin-3-yl)-1H-pyrrolo[2,3-b]pyridin-2-yl)methyl)cyclopentane-1-carboxamide] |
| 1000 to 30000 | CN(C)CC(=O)NCc1cc2c(-c3cnn4ncccc34)ccnc2[nH]1 [Example 117, 2-(Dimethylamino)-N-((4-(pyrazolo[1,5-b]pyridazin-3-yl)-1H-pyrrolo[2,3-b]pyridin-2-yl)methyl)acetamide Formate Salt] |
| 1000 to 30000 | COc1ccc(Cn2cc(-c3ccnc4[nH]ccc34)nn2)cc1 [Example 135, 4-(1-(4-Methoxybenzyl)-1H-1,2,3-triazol-4-yl)-1H-pyrrolo[2,3-b]pyridine] |
| < 100 | COCCC(=O)Nc1ccccc1C(=O)N1CCC(c2cc3c(-c4cnn5ncccc45)ccnc3[nH]2)C1 (stereo not drawn) [Example 163, 3-Methoxy-N-(2-(3-(4-(pyrazolo[1,5-b]pyridazin-3-yl)-1H-pyrrolo[2,3-b]pyridin-2-yl)pyrrolidine-1-carbonyl)phenyl)propanamide Formate Salt] |
| 1000 to 30000 | C=CC(=O)N[C@H]1COC[C@@H]1C(=O)NCc1cc2c(-c3cnn4ncccc34)ccnc2[nH]1 [Example 58, (3R,4R)-4-Acrylamido-N-((4-(pyrazolo[1,5-b]pyridazin-3-yl)-1H-pyrrolo[2,3-b]pyridin-2-yl)methyl)tetrahydrofuran-3-carboxamide] |
| 100 to 1000 | CN(C)C/C=C/C(=O)Nc1ccc(C(=O)NCc2cc3c(-c4cnn5ncccc45)ccnc3[nH]2)cc1 [Example 181] |
| 1000 to 30000 | C=CC(=O)N1CCC[C@@H]1C(=O)NCc1cc2c(-c3cnn4ncccc34)ccnc2[nH]1 [Example 182, (R)-1-Acryloyl-N-((4-(pyrazolo[1,5-b]pyridazin-3-yl)-1H-pyrrolo[2,3-b]pyridin-2-yl)methyl)pyrrolidine-2-carboxamide] |
| 1000 to 30000 | CC(C)=C(C#N)C(=O)N1CCC[C@H]1C(=O)NCCc1cc2c(-c3cnn4ncccc34)ccnc2[nH]1 [Example 202, (S)-1-(2-Cyano-3-methylbut-2-enoyl)-N-(2-(4-(pyrazolo[1,5-b]pyridazin-3-yl)-1H-pyrrolo[2,3-b]pyridin-2-yl)ethyl)pyrrolidine-2-carboxamide] |
| 1000 to 30000 | C=CC(=O)N1CCC(CC(=O)NCc2cc3c(-c4cnn5ncccc45)ccnc3[nH]2)CC1 [Example 193, 2-(1-Acryloylpiperidin-4-yl)-N-((4-(pyrazolo[1,5-b]pyridazin-3-yl)-1H-pyrrolo[2,3-b]pyridin-2-yl)methyl)acetamide] |

| IC50 [nM] | Structure (SMILES) |
| --- | --- |
| 1000 to 30000 | CN(C)CCNC(=O)c1cc2c(-c3cnn4ncccc34)ccnc2[nH]1 [Example 5, N-(2-(Dimethylamino)ethyl)-4-(pyrazolo[1,5-b]pyridazin-3-yl)-1H-pyrrolo[2,3-b]pyridine-2-carboxamide] |
| < 100 | CN(C)C/C=C/C(=O)Nc1cccc(C(=O)N2CCC(c3cc4c(-c5cnn6ncccc56)ccnc4[nH]3)C2)c1 (stereo not drawn) [Example 142, (E)-4-(Dimethylamino)-N-(3-(3-(4-(pyrazolo[1,5-b]pyridazin-3-yl)-1H-pyrrolo[2,3-b]pyridin-2-yl)pyrrolidine-1-carbonyl)phenyl)but-2-enamide] |
| < 100 | Nc1cccc(-c2cc3c(-c4cnn5ncccc45)ccnc3[nH]2)c1 [Example 114, 3-(4-(Pyrazolo[1,5-b]pyridazin-3-yl)-1H-pyrrolo[2,3-b]pyridin-2-yl)aniline] |
| 1000 to 30000 | O=C(NCCc1cc2c(-c3cnn4ncccc34)ccnc2[nH]1)[C@@H]1CCCN1C(=O)/C=C/CN1CCOCC1 [Example 86, (S,E)-1-(4-Morpholinobut-2-enoyl)-N-(2-(4-(pyrazolo[1,5-b]pyridazin-3-yl)-1H-pyrrolo[2,3-b]pyridin-2-yl)ethyl)pyrrolidine-2-carboxamide] |
| 100 to 1000 | c1cnn2ncc(-c3ccnc4[nH]c([C@@H]5CCNC5)cc34)c2c1 (single isomer, unassigned) [Example 124, 3-(2-(Pyrrolidin-3-yl)-1H-pyrrolo[2,3-b]pyridin-4-yl)pyrazolo[1,5-b]pyridazine] |
| < 100 | CCC(=O)Nc1cccc(C(=O)N2CCC(c3cc4c(-c5cnn6ncccc56)ccnc4[nH]3)C2)c1 (stereo not drawn) [Example 173, N-(3-(3-(4-(Pyrazolo[1,5-b]pyridazin-3-yl)-1H-pyrrolo[2,3-b]pyridin-2-yl)pyrrolidine-1-carbonyl)phenyl)propionamide] |
| 1000 to 30000 | Cc1ccc2c(-c3ccnc4[nH]ccc34)cnn2n1 [Example 26, 6-Methyl-3-(1H-pyrrolo[2,3-b]pyridin-4-yl)pyrazolo[1,5-b]pyridazine] |
| 1000 to 30000 | C=CC(=O)N1CCC[C@H](C(=O)NCc2cc3c(-c4cnn5ncccc45)ccnc3[nH]2)C1 [Example 186, (S)-1-Acryloyl-N-((4-(pyrazolo[1,5-b]pyridazin-3-yl)-1H-pyrrolo[2,3-b]pyridin-2-yl)methyl)piperidine-3-carboxamide] |
| < 100 | C=CC(=O)NC1(C(=O)NCCCc2cc3c(-c4cnn5ncccc45)ccnc3[nH]2)CC1 [Example 214, 1-Acrylamido-N-(3-(4-(pyrazolo[1,5-b]pyridazin-3-yl)-1H-pyrrolo[2,3-b]pyridin-2-yl)propyl)cyclopropane-1-carboxamide] |
| 100 to 1000 | O=C(NCCc1cc2c(-c3cnn4ncccc34)ccnc2[nH]1)[C@@H]1CCCN1C(=O)CO [Example 78, (S)-1-(2-Hydroxyacetyl)-N-(2-(4-(pyrazolo[1,5-b]pyridazin-3-yl)-1H-pyrrolo[2,3-b]pyridin-2-yl)ethyl)pyrrolidine-2-carboxamide] |
| 1000 to 30000 | C=CC(=O)NCc1cccc(C(=O)NCc2cc3c(-c4cnn5ncccc45)ccnc3[nH]2)c1 [Example 192, 3-(Acrylamidomethyl)-N-((4-(pyrazolo[1,5-b]pyridazin-3-yl)-1H-pyrrolo[2,3-b]pyridin-2-yl)methyl)benzamide] |
| 1000 to 30000 | Cc1c[nH]c2nccc(-c3cnn4ncccc34)c12 [Example 8, 3-(3-Methyl-1H-pyrrolo[2,3-b]pyridin-4-yl)pyrazolo[1,5-b]pyridazine] |
| 1000 to 30000 | C=CC(=O)N1CC[C@H](C(=O)NCc2cc3c(-c4cnn5ncccc45)ccnc3[nH]2)C1 [Example 178, (S)-1-Acryloyl-N-((4-(pyrazolo[1,5-b]pyridazin-3-yl)-1H-pyrrolo[2,3-b]pyridin-2-yl)methyl)pyrrolidine-3-carboxamide] |
| 1000 to 30000 | NCCc1cc2c(-c3cccnc3)ccnc2[nH]1 [Example 104, 2-(4-(Pyridin-3-yl)-1H-pyrrolo[2,3-b]pyridin-2-yl)ethan-1-amine] |
| 1000 to 30000 | C=CC(=O)N[C@H]1CC[C@@H](C(=O)NCc2cc3c(-c4cnn5ncccc45)ccnc3[nH]2)CC1 [Example 187, (1s,4s)-4-Acrylamido-N-((4-(pyrazolo[1,5-b]pyridazin-3-yl)-1H-pyrrolo[2,3-b]pyridin-2-yl)methyl)cyclohexane-1-carboxamide] |
| 1000 to 30000 | C=CC(=O)N1CCC[C@H]1C(=O)NCCc1cc2c(-c3ccncc3)ccnc2[nH]1 [Example 95, (S)-1-Acryloyl-N-(2-(4-(pyridin-4-yl)-1H-pyrrolo[2,3-b]pyridin-2-yl)ethyl)pyrrolidine-2-carboxamide] |
